Test [1] deals with β-adrenergic receptors. The experiment in a line: Antagonism of the effects of isoprenaline (tachycardia) in the anaesthetized dog. The test is classed as in vivo. The following applies: dose inhibiting 80% of the tachycardia induced by i.v. isoprenaline, intravenous. Here is the method:
(§1) In vivo pharmacological action in the dog
(§2) The dog is anaesthetized with sodium pentobarbital, administered by the intravenous route at the dose of 30 mg/kg. A cannula placed in the short saphenous vein allows the products to be injected intravenously. The animal is intubated and allowed to breathe spontaneously.
(§3) The cardiac frequency (C.F.) and the systemic arterial pressure (A.P.) and the parameter (dP/dt)p^-1 max which expresses the cardiac contractibility are recorded with the aid of catheters and the variations in these parameters are measured after intravenous injection of the product to be tested, each product being tested at increasing doses.
Antagonism of the effects of isoprenaline
The antagonism of the products with respect to the stimulating cardiovascular effects of isoprenaline on the β-adrenergic receptors was sought. The results are shown in Table II hereinafter and expressed in ID80 : this is the dose expressed in mg/kg which provokes inhibition of 80% of the tachycardia induced by the isoprenaline administered by the intravenous route.

The nature of test [2]: In vivo pharmacological action in the anaesthetized dog (cardiac frequency, systemic arterial pressure, cardiac contractibility). Conditions: Table II, parameter name is in the drawing [drawing 9], intravenous; for direct effect: first sign; for direct effect, [drawing 9]: second sign (wrapped to next line). Here is the method:
as §1, §2, §3

A short description of test [3]: Chronotropic effect in the dog subjected to reserpine and anaesthetized. Format: in vivo. The following applies: 1 mg/kg intravenous.
In test [4] the test system is α-adrenergic receptors. In words: Antagonism of the effects of noradrenaline (pressive response) in the dog. Format: in vivo. Conditions: dose inhibiting 50% of the pressive response to i.v. noradrenaline. Here is the method:
as §1, §2, §3
Antagonism of the effects of noradrenaline
The antagonism of the products with respect to the vascular effects provoked by the intravenous administration of noradrenaline on the α-adrenergic receptors was sought. The results shown in Table II are expressed in ID50 : this is the dose (mg/kg) which provokes the inhibition of 50% of the pressive response due to the intravenous administration of noradrenaline.

The nature of test [5]: Cardiac frequency in the alert dog after oral administration. Format: in vivo. From the text:
The different results on the cardiovascular system obtained in the anaesthetized dog have been confirmed for certain products in the alert dog after administration of the product by the oral route.

Results on 14 compounds are retold here after patent publication US4522824A, “Indole derivatives of tryptamine and cardiovascular compositions thereof” (Sanofi, priority 1982, dated 1985).

Counter-ions that a name gives are not always drawn.

As for `CCOC(=O)c1cc2c(OCC(O)CNC(C)Cc3c[nH]c4ccccc34)cccc2[nH]1` (racemic) [SR41294A], in test [1], the “ID80 isoprenaline, β-effect” value is 0.1 mg/kg. Also, in test [2], the “direct effect” value was “.dwnarw” and the “direct effect, [drawing 9]” value is given as “.dwnarw”.

As for `CCOC(=O)c1cc2c(OCC(O)CNC(C)(C)Cc3c[nH]c4ccccc34)cccc2[nH]1` (stereo not drawn) [CM40593, 4-[3-[2-(3-indolyl)1,1-dimethylethylamino]2-hydroxypropoxy]2-ethoxycarbonyl indole], in test [1], the “ID80 isoprenaline, β-effect” value was 0.1 mg/kg. Besides, the chronotropic effect result in test [3] is “slight positive chronotropic effect”. Further, in test [2], the “direct effect” value is recorded as “= or .dwnarw” and the “direct effect, [drawing 9]” value is “.uparw”. In test [4], this compound came in with an ID50 of 0.1 mg/kg.

Turning to `CC(C)(Cc1c[nH]c2ccccc12)NCC(O)COc1cccc2[nH]c(C(N)=O)cc12` (stereo not drawn) [CM41105], the “ID80 isoprenaline, β-effect” value in test [1] was 0.1 mg/kg. In test [2], the “direct effect” value was “weak .dwnarw” and the “direct effect, [drawing 9]” value was “.uparw”.

`CC(C)(Cc1c[nH]c2ccccc12)NCC(O)COc1cccc2[nH]c(CO)cc12` (stereo not drawn) [CM41165]: the “ID80 isoprenaline, β-effect” value in test [1] is reported as 0.05 mg/kg. In addition, in test [2], the “direct effect” value is “.dwnarw” and the “direct effect, [drawing 9]” value is “.dwnarw”.

Consider `CC(C)(Cc1c[nH]c2ccccc12)NCC(O)COc1cccc2[nH]c(C#N)cc12` (stereo not drawn) [SR41370A], for which, in test [1], the “ID80 isoprenaline, β-effect” value amounted to 0.05 mg/kg. Moreover, in test [2], the “direct effect” value is given as “weak .dwnarw” and the “direct effect, [drawing 9]” value is on record as “.uparw”.

`CCOC(=O)c1cc2c(OCC(O)CNC(C)(C)Cc3c[nH]c4ccc(OC)cc34)cccc2[nH]1` (stereo not drawn) [SR41648]: the “ID80 isoprenaline, β-effect” value in test [1] came to 0.1 mg/kg. Further, in test [2], the “direct effect” value is “.dwnarw” and the “direct effect, [drawing 9]” value is recorded as “.dwnarw”.

As to `CCOC(=O)c1cc2c(OCC(O)CNC(C)(C)Cc3c[nH]c4ccc(C)cc34)cccc2[nH]1` (stereo not drawn) [SR41716A], the “effect on cardiac frequency” value in test [5] was “decrease the cardiac frequency or are without action thereon”.

Regarding `CC(C)OC(=O)c1cc2c(OCC(O)CNC(C)(C)Cc3c[nH]c4ccccc34)cccc2[nH]1` (stereo not drawn) [SR41719A], the “effect on cardiac frequency” value in test [5] was “decrease the cardiac frequency or are without action thereon”.

Take `CCOC(=O)c1cc2c(OCC(O)CNC(C)(C)Cc3c[nH]c4ccc(F)cc34)cccc2[nH]1` (stereo not drawn) [SR41779A]: the “effect on cardiac frequency” value in test [5] is on record as “decrease the cardiac frequency or are without action thereon”.

As to `CCOC(=O)c1cc2c(OCC(O)CNC(C)(C)Cc3c[nH]c4ccc(Cl)cc34)cccc2[nH]1` (stereo not drawn) [SR41780A], the “effect on cardiac frequency” value in test [5] is given as “decrease the cardiac frequency or are without action thereon”.

With `CC(C)(Cc1c[nH]c2ccccc12)NCC(O)COc1cccc2[nH]c(C(=O)O)cc12` (stereo not drawn) [SR41828A], the “ID80 isoprenaline, β-effect” value in test [1] is given as 0.3 mg/kg. For the same compound, in test [2], the “direct effect” value was “= or .dwnarw” and the “direct effect, [drawing 9]” value is recorded as “=”. The “effect on cardiac frequency” value in test [5] is listed as “decrease the cardiac frequency or are without action thereon”.

As to `CCCCN(CCCC)C(=O)c1cc2c(OCC(O)CNC(C)(C)Cc3c[nH]c4ccccc34)cccc2[nH]1` (stereo not drawn) [SR41830A], in test [1], the “ID80 isoprenaline, β-effect” value is 1 mg/kg. The “direct effect, [drawing 9]” value in test [2] is given as “.uparw”.

For `CCOC(=O)c1cc2c(OCC(O)CNC(C)(C)Cc3c[nH]c4ccc(C#N)cc34)cccc2[nH]1` (stereo not drawn) [SR41831A, 4-[3-[(5-cyano 3-indolyl)1,1-dimethylethylamino]2-hydroxypropoxy]2-ethoxycarbonyl indole, neutral fumarate], the “ID80 isoprenaline, β-effect” value in test [1] came to 0.1 mg/kg. In test [2], the “direct effect” value is listed as “.dwnarw” and the “direct effect, [drawing 9]” value is given as “.dwnarw”.

With `CCOC(=O)c1cc2c(OCC(O)CNC(C)(CO)Cc3c[nH]c4ccccc34)cccc2[nH]1` (stereo not drawn) [SR41832], in test [1], the “ID80 isoprenaline, β-effect” value was found to be 0.1 mg/kg. In addition, in test [2], the “direct effect” value is listed as “.dwnarw” and the “direct effect, [drawing 9]” value is given as “.dwnarw”.
